This experiment has as its system Pythium ultimum. Nature of the experiment: Pythium ultimum / liquid culture (seedling damping off). The following applies: Globisporangium ultimum, growth inhibition photometrically 2-3 days after application, compared to untreated control. The format is cell-based. How it is done: 15. Pythium ultimum/Liquid Culture (Seedling Damping Off) Mycelia fragments and oospores of a newly grown liquid culture of the fungus are directly mixed into nutrient broth (PDB potato dextrose broth). After placing a (DMSO) solution of test compound into a microtiter plate (96-well format), the nutrient broth containing the fungal mycelia/spore mixture is added. The test plates are incubated at 24° C. and the inhibition of growth is determined photometrically 2-3 days after application.

A word on the inhibition of growth: it is the percentage by which the read-out fell short of the control. Low values mean a weak effect, high ones a strong effect.

`COc1c(C(=O)NCc2ncc(C(F)(F)F)cc2Cl)ccc2c1B(O)OC2` [Compound 68, N-[[3-chloro-5-(trifluoromethyl)-2-pyridyl]methyl]-1-hydroxy-7-methoxy-3H-2,1-benzoxaborole-6-carboxamide]: the inhibition of growth at 20 ppm was ≥ 80%.

`COc1c(C(=O)OCC(C)=O)ccc2c1B(O)OC2` [Compound 76, acetonyl 1-hydroxy-7-methoxy-3H-2,1-benzoxaborole-6-carboxylate]: the inhibition of growth at 20 ppm is ≥ 80%.

Take `COC(=O)C1CCN(C(=O)c2ccc3c(c2OC)B(O)OC3)CC1` [Compound 24, methyl 1-(1-hydroxy-7-methoxy-3H-2,1-benzoxaborole-6-carbonyl)piperidine-4-carboxylate]: the inhibition of growth at 20 ppm was ≥ 80%.

As to `CCN(Cc1cccnc1)C(=O)c1ccc2c(c1OC)B(O)OC2` [Compound 48, N-ethyl-1-hydroxy-7-methoxy-N-(3-pyridylmethyl)-3H-2,1-benzoxaborole-6-carboxamide], the inhibition of growth at 20 ppm is ≥ 80%.

Turning to `COc1cc(COC(=O)c2ccc3c(c2OC)B(O)OC3)ccc1O` [Compound 126, (4-hydroxy-3-methoxy-phenyl)methyl 1-hydroxy-7-methoxy-3H-2,1-benzoxaborole-6-carboxylate], the inhibition of growth at 20 ppm was ≥ 80%.

As to `COc1c(C(=O)N(C)c2nc(C)c(S(N)(=O)=O)s2)ccc2c1B(O)OC2` [Compound 28, 1-hydroxy-7-methoxy-N-methyl-N-(4-methyl-5-sulfamoyl-thiazol-2-yl)-3H-2,1-benzoxaborole-6-carboxamide], the inhibition of growth at 20 ppm was ≥ 80%.

Turning to `COc1c(C(=O)NC(C)(C)C)ccc2c1B(O)OC2` [Compound 60, N-tert-butyl-1-hydroxy-7-methoxy-3H-2,1-benzoxaborole-6-carboxamide], the inhibition of growth at 20 ppm was ≥ 80%.

As for `CCOC(=O)C1(NC(=O)c2ccc3c(c2OC)B(O)OC3)CC1` [Compound 37, ethyl 1-[(1-hydroxy-7-methoxy-3H-2,1-benzoxaborole-6-carbonyl)amino]cyclopropanecarboxylate], the inhibition of growth at 20 ppm was ≥ 80%.

`CCOC(=O)N1CCC(NC(=O)c2ccc3c(c2OC)B(O)OC3)CC1` [Compound 18, ethyl 4-[(1-hydroxy-7-methoxy-3H-2,1-benzoxaborole-6-carbonyl)amino]piperidine-1-carboxylate]: the inhibition of growth at 20 ppm is ≥ 80%.

Turning to `COc1c(C(=O)N(C)c2ccccn2)ccc2c1B(O)OC2` [Compound 30, 1-hydroxy-7-methoxy-N-methyl-N-(2-pyridyl)-3H-2,1-benzoxaborole-6-carboxamide], the inhibition of growth at 20 ppm is ≥ 80%.

With `COc1c(C(=O)OCc2ccncc2)ccc2c1B(O)OC2` [Compound 106, 4-pyridylmethyl 1-hydroxy-7-methoxy-3H-2,1-benzoxaborole-6-carboxylate], the inhibition of growth at 20 ppm is ≥ 80%.

For the compound `COc1c(C(=O)NCc2ccc(Cl)nc2)ccc2c1B(O)OC2` [Compound 59, N-[(6-chloro-3-pyridyl)methyl]-1-hydroxy-7-methoxy-3H-2,1-benzoxaborole-6-carboxamide], the inhibition of growth at 20 ppm was ≥ 80%.

Regarding `COc1c(C(=O)Nc2c(C(C)C)ccnc2C(C)C)ccc2c1B(O)OC2` [Compound 38, N-(2,4-diisopropyl-3-pyridyl)-1-hydroxy-7-methoxy-3H-2,1-benzoxaborole-6-carboxamide], the inhibition of growth at 20 ppm was ≥ 80%.

In the case of `CN(C)C(=O)c1ccc2c(c1Cl)B(O)OC2` [Compound 13, 7-chloro-1-hydroxy-N,N-dimethyl-3H-2,1-benzoxaborole-6-carboxamide], the inhibition of growth at 20 ppm is ≥ 80%.

Take `COc1c(C(=O)N(C)C)ccc2c1B(O)OC2` [Compound 11, 1-hydroxy-7-methoxy-N,N-dimethyl-3H-2,1-benzoxaborole-6-carboxamide]: the inhibition of growth at 20 ppm is ≥ 80%.

Regarding `COc1n[nH]c(NC(=O)c2ccc3c(c2OC)B(O)OC3)n1` [Compound 51, 1-hydroxy-7-methoxy-N-(3-methoxy-1H-1,2,4-triazol-5-yl)-3H-2,1-benzoxaborole-6-carboxamide], the inhibition of growth at 20 ppm is ≥ 80%.
